{"source": "paper PMC5736936", "about": "“Xylopine Induces Oxidative Stress and Causes G2/M Phase Arrest, Triggering Caspase-Mediated Apoptosis by p53-Independent Pathway in HCT116 Cells” (Oxidative Medicine and Cellular Longevity, 2017)", "key": {"[1]": {"tested_on": "B16-F10 (murine melanoma)", "test": "Cytotoxic activity, alamarBlue assay, 72 h", "assay_type": "cell-based", "description": "(§1) MCF7 (human breast carcinoma), HCT116 (human colon carcinoma), HepG2 (human hepatocellular carcinoma), SCC-9 (human oral squamous cell carcinoma), HSC-3 (human oral squamous cell carcinoma), HL-60 (human promyelocytic leukemia), K-562 (human chronic myelogenous leukemia), B16-F10 (murine melanoma), MRC-5 (human lung fibroblast), WT SV40 MEF (wild-type immortalized mouse embryonic fibroblast), and BAD KO SV40 MEF (BAD gene knockout immortalized mouse embryonic fibroblast) cell lines were obtained from the American Type Culture Collection (ATCC, Manassas, VA, USA). Cells were cultured in complete medium with appropriate supplements as recommended by ATCC. All cell lines were tested for mycoplasma using the Mycoplasma Stain Kit (Sigma-Aldrich) to validate the use of cells free from contamination. Primary cell culture of peripheral blood mononuclear cells (PBMC) was obtained by standard Ficoll density protocol. The Research Ethics Committee of the Oswaldo Cruz Foundation (Salvador, BA, Brazil) approved the experimental protocol (number 031019/2013). Cell viability was examined using trypan blue exclusion assay for all experiments.\n(§2) Cell viability was quantified using the alamarBlue assay according to Ahmed et al.. Cells were inserted in 96-well plates for all experiments (7 × 10^4 cells/mL for adherent cells or 3 × 10^5 cells/mL for suspended cells in 100 μL of medium). After 24 h, xylopine was dissolved in dimethyl sulfoxide (DMSO) and added to each well and incubated for 72 h. […] Four (for cell lines) or 24 h (for PBMCs) before the end of incubation, 20 μL of a stock solution (0.312 mg/mL) of the alamarBlue (resazurin, Sigma-Aldrich Co., Saint Louis, MO, USA) was added to each well. Absorbance at 570 nm and 600 nm was measured using the SpectraMax 190 Microplate Reader (Molecular Devices, Sunnyvale, CA, USA), and the drug effect was quantified as the percentage of control absorbance."}, "[2]": {"tested_on": "HCT116 (human colon carcinoma)", "test": "Cytotoxic activity, alamarBlue assay, 72 h", "assay_type": "cell-based", "description": "as §1, §2"}, "[3]": {"tested_on": "HL-60 (human promyelocytic leukemia)", "test": "Cytotoxic activity, alamarBlue assay, 72 h", "assay_type": "cell-based", "description": "as §1, §2"}, "[4]": {"tested_on": "HSC3 (human oral squamous cell carcinoma)", "test": "Cytotoxic activity, alamarBlue assay, 72 h", "assay_type": "cell-based", "description": "as §1, §2"}, "[5]": {"tested_on": "HepG2 (human hepatocellular carcinoma)", "test": "Cytotoxic activity, alamarBlue assay, 72 h", "assay_type": "cell-based", "description": "as §1, §2"}, "[6]": {"tested_on": "K562 (human chronic myelogenous leukemia)", "test": "Cytotoxic activity, alamarBlue assay, 72 h", "assay_type": "cell-based", "description": "as §1, §2"}, "[7]": {"tested_on": "MCF7 (human breast carcinoma)", "test": "Cytotoxic activity, alamarBlue assay, 72 h", "assay_type": "cell-based", "description": "as §1, §2"}, "[8]": {"tested_on": "SCC9 (human oral squamous cell carcinoma)", "test": "Cytotoxic activity, alamarBlue assay, 72 h", "assay_type": "cell-based", "description": "as §1, §2"}, "[9]": {"tested_on": "cancer multicellular spheroids formed from HCT116 cells", "test": "3D multicellular spheroids culture, alamarBlue assay, 72 h", "assay_type": "cell-based, human", "experimental": "HCT116 cells were cultivated in three-dimensional (3D) multicellular spheroids. Briefly, 100 μL of a solution of cells (0.5 × 10^6 cells/mL) was inserted in 96-well plates with a cell-repellent surface (Greiner Bio-One, Kremsmünster, Austria) and cultured in complete medium plus 3% Matrigel (BD Biosciences, San Jose, CA, USA). Spheroids with stable structures had formed after three days. Then, the spheroids were exposed to a range of drug concentrations for 72 h, after which the cell viability was quantified by alamarBlue assay as described above."}, "HCT116 cells [10]": {"tested_on": "HCT116 cells", "test": "Cell viability by trypan blue exclusion assay", "assay_type": "cell-based, human", "conditions": "for reduction of the number of viable cells: HCT116, trypan blue", "description": "as §1"}, "[11]": {"tested_on": "caspase-3 in HCT116 cells", "test": "Caspase-3 activation assay (colorimetric, Ac-DEVD-pNA)", "assay_type": "cell-based, human", "conditions": "HCT116, 48 h, p < 0.05", "experimental": "A Caspase-3 Colorimetric Assay Kit (Sigma-Aldrich Co.) was used to investigate caspase-3 activation in xylopine-treated HCT116 cells based on the cleavage of Ac-DEVD-pNA and the analysis was performed according to the manufacturer's instructions."}, "HCT116 cells [12]": {"tested_on": "HCT116 cells", "test": "Cellular reactive oxygen species levels (DCF-DA)", "assay_type": "cell-based, human", "experimental": "The levels of reactive oxygen species (ROS) were measured according to previously described using 2′,7′-dichlorofluorescin diacetate (DCF-DA) (Sigma-Aldrich Co.). In brief, cells were treated with xylopine for 1 and 3 h. Then, the cells were collected, washed with saline, and resuspended in FACS tubes with saline containing 5 μM DCF-DA for 30 min. Finally, the cells were washed with saline and the cell fluorescence was determined by flow cytometry as described above. The protection assay using the antioxidant NAC and catalase (Sigma-Aldrich Co.) was performed. In brief, the cells were pretreated for 1 h with 5 mM NAC or 2000 UI catalase and then incubated with xylopine in the established concentration for 1 h. The cells were then trypsinized and the ROS levels were measured as described above."}, "HCT116 cells [13]": {"tested_on": "HCT116 cells", "test": "Cellular GSH level", "assay_type": "cell-based, human", "conditions": "HCT116, 1 h", "experimental": "A quantification kit for reduced glutathione (L-γ-glutamyl-L-cysteinyl-glycine, GSH, Sigma-Aldrich Co.) was used to investigate cellular GSH level in xylopine-treated HCT116 cells and the analysis was performed according to the manufacturer's instructions."}, "HCT116 cells [14]": {"tested_on": "HCT116 cells", "test": "Morphological analysis (May-Grünwald-Giemsa)", "assay_type": "cell-based, human", "conditions": "24 and 48 h, DOX 1 μM, OXA 2.5 μM", "experimental": "To evaluate alterations in morphology, cells were cultured under coverslip and stained with May-Grünwald-Giemsa. Morphological changes were examined by light microscopy using Image-Pro software."}}, "data": [{"smiles": "COc1ccc2c(c1)C[C@@H]1NCCc3cc4c(c-2c31)OCO4", "note": "[XYL, xylopine]", "values": [{"measurement": "Selectivity index", "setting": "[1]; IC50(MRC5)/IC50(B16-F10)", "value": 2.5}, {"measurement": "Selectivity index", "setting": "[1]; IC50(PBMC)/IC50(B16-F10)", "value": 1.9}, {"measurement": "IC50", "setting": "[1]; Mus musculus, B16-F10, alamarBlue, 72 h", "value": 9.6, "unit": "µM"}, {"measurement": "IC50", "setting": "[2]; Homo sapiens, HCT-116, HCT116, alamarBlue, 72 h", "value": 6.4, "unit": "µM"}, {"measurement": "Selectivity index", "setting": "[2]; IC50(MRC5)/IC50(HCT116)", "value": 3.8}, {"measurement": "Selectivity index", "setting": "[2]; IC50(PBMC)/IC50(HCT116)", "value": 2.9}, {"measurement": "IC50", "setting": "[3]; Homo sapiens, HL-60, alamarBlue, 72 h", "value": 18.5, "unit": "µM"}, {"measurement": "Selectivity index", "setting": "[3]; IC50(MRC5)/IC50(HL-60)", "value": 1.3}, {"measurement": "Selectivity index", "setting": "[3]; IC50(PBMC)/IC50(HL-60)", "value": 1}, {"measurement": "IC50", "setting": "[4]; Homo sapiens, HSC-3, HSC3, alamarBlue, 72 h", "value": 15.7, "unit": "µM"}, {"measurement": "Selectivity index", "setting": "[4]; IC50(MRC5)/IC50(HSC-3)", "value": 1.5}, {"measurement": "Selectivity index", "setting": "[4]; IC50(PBMC)/IC50(HSC-3)", "value": 1.2}, {"measurement": "IC50", "setting": "[5]; Homo sapiens, HepG2, alamarBlue, 72 h", "value": 9.4, "unit": "µM"}, {"measurement": "Selectivity index", "setting": "[5]; IC50(MRC5)/IC50(HepG2)", "value": 2.6}, {"measurement": "Selectivity index", "setting": "[5]; IC50(PBMC)/IC50(HepG2)", "value": 2}, {"measurement": "IC50", "setting": "[6]; Homo sapiens, K562, alamarBlue, 72 h", "value": 7.8, "unit": "µM"}, {"measurement": "Selectivity index", "setting": "[6]; IC50(MRC5)/IC50(K-562)", "value": 3.1}, {"measurement": "Selectivity index", "setting": "[6]; IC50(PBMC)/IC50(K-562)", "value": 2.4}, {"measurement": "IC50", "setting": "[7]; Homo sapiens, MCF7, alamarBlue, 72 h", "value": 12, "unit": "µM"}, {"measurement": "Selectivity index", "setting": "[7]; IC50(MRC5)/IC50(MCF7)", "value": 2}, {"measurement": "Selectivity index", "setting": "[7]; IC50(PBMC)/IC50(MCF7)", "value": 1.5}, {"measurement": "IC50", "setting": "[8]; Homo sapiens, SCC-9, SCC9, alamarBlue, 72 h", "value": 26.6, "unit": "µM"}, {"measurement": "Selectivity index", "setting": "[8]; IC50(MRC5)/IC50(SCC-9)", "value": 0.9}, {"measurement": "Selectivity index", "setting": "[8]; IC50(PBMC)/IC50(SCC-9)", "value": 0.7}, {"measurement": "morphology of spheroids", "setting": "[9]; 3D spheroids of HCT116, light microscopy", "value": "morphological alterations that indicate drug permeability and cytotoxicity in the 3D culture"}, {"measurement": "IC50", "setting": "[9]; Homo sapiens, HCT-116, 3D spheroids of HCT116, alamarBlue, 72 h", "value": 24.6, "unit": "µM"}, {"measurement": "reduction of the number of viable cells", "setting": "HCT116 cells [10]; 3.5 μM, 24 h", "value": 50.2, "unit": "%"}, {"measurement": "reduction of the number of viable cells", "setting": "HCT116 cells [10]; 3.5 μM, 48 h", "value": 79.9, "unit": "%"}, {"measurement": "reduction of the number of viable cells", "setting": "HCT116 cells [10]; 7 μM, 24 h", "value": 64.4, "unit": "%"}, {"measurement": "reduction of the number of viable cells", "setting": "HCT116 cells [10]; 7 μM, 48 h", "value": 84.6, "unit": "%"}, {"measurement": "reduction of the number of viable cells", "setting": "HCT116 cells [10]; 14 μM, 24 h", "value": 71.8, "unit": "%"}, {"measurement": "reduction of the number of viable cells", "setting": "HCT116 cells [10]; 14 μM, 48 h", "value": 89.4, "unit": "%"}, {"measurement": "number of nonviable cells", "setting": "HCT116 cells [10]; HCT116, trypan blue, 3.5, 7, 14 μM, 24 and 48 h", "value": "No significant increase"}, {"measurement": "caspase-3 activation", "setting": "[11]", "value": "increased caspase-3 activation"}, {"measurement": "xylopine-induced increase in intracellular ROS level on cotreatment with NAC", "setting": "HCT116 cells [12]; HCT116, 5 mM NAC 1 h, then 14 μM xylopine 1 h", "value": "prevented"}, {"measurement": "xylopine-induced increase in intracellular ROS levels on cotreatment with catalase", "setting": "HCT116 cells [12]; HCT116, 2000 UI catalase 1 h, then 14 μM xylopine 1 h", "value": "prevented"}, {"measurement": "ROS levels", "setting": "HCT116 cells [12]; HCT116, DCF-DA, 1 and 3 h", "value": "caused an increase in the ROS levels"}, {"measurement": "GSH levels", "setting": "HCT116 cells [13]", "value": "decreased"}, {"measurement": "cell morphology", "setting": "HCT116 cells [14]", "value": "reduction in the cell volume, chromatin condensation, and fragmentation of the nuclei"}]}]}
